# Values of other authors as cited in US20250325558A1, “MODULATION OF BACE1 AS A THERAPY FOR SPINOCEREBELLAR ATAXIA” (The General Hospital Corporation, priority 2022, published 2025).
# Settings: preclinical and clinical studies
smiles,measurement,value
"CN1C(=N)N[C@](C)(c2cc(NC(=O)c3ccc(F)cn3)ccc2F)CS1(=O)=O [MK-8931, verubecestat]",serious adverse side effects such as liver toxicity,did not produce any serious adverse side effects such as liver toxicity
